SMILES strings stand for the structures.

The subject of assay [1] is Wnt-responsive Sp5-Luc reporter in SW480 colon carcinoma cells. The assay is described as follows: Screening assay for Wnt activity (Sp5-Luc reporter gene assay). Particulars: Homo sapiens; for EC50: SW480; for inhibition at 10 µM: SW480, read-out: percent inhibition at 10 μM.
Assay [2] deals with DYRK1A kinase (Homo sapiens, UniProt Q13627). The assay is described as follows: DYRK1A kinase activity (Ser/Thr 18 peptide Z-lyte FRET assay).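 Note: kinase activity read as coumarin/fluorescein emission ratio after development step, with unphosphorylated and phosphorylated peptide forms setting 0% and 100% controls, values from dose-response curves.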 Format: biochemical. Particulars: recombinant DYRK1A, 30 μM ATP, one hour at room temperature.
In assay [3] the test system is α-smooth muscle actin (aSMA) positive LL29 cells. The assay is described as follows: Inhibition of the fibrotic process: αSMA staining in TGF-β1 treated LL29 fibroblasts from IPF patients. Particulars: Homo sapiens, Fibroblast; for EC50: 96 h; for inhibition at 10 µM: read-out: percentage in parentheses after EC50 >10.
Description: Each compound was dissolved in DMSO as a 10 mM stock and used to prepare compound source plates. […] LL29 cells were plated at 1,500 cells/well in 70 μL/well F12 medium supplemented with 1% Fetal Bovine Serum. […] Wells treated with TGF-β1 and containing DMSO were used as positive control, and cells with only DMSO were negative control. Cells were incubated at 37° C. and 5% CO2 for 4 days. Following incubation for 4 days, SYTOX green nucleic acid stain (Life Technologies [Thermo Fisher Scientific]) was added to the wells at a final concentration of 1 μM and incubated at room temperature for 30 min. Cells were then fixed using 4% formaldehyde (Electron Microscopy Sciences), washed 3 times with PBS followed by blocking and permeabilization using 3% Bovine Serum Albumin (BSA; Sigma) and 0.3% Triton X-100 (Sigma) in PBS.
Assay [4] addresses GSK3β kinase (Homo sapiens, UniProt P49841). The assay is described as follows: GSK3β kinase activity (Ser/Thr 09 peptide Z-lyte FRET assay). Format: biochemical. The settings on record: recombinant kinase, 46 μM ATP, one hour at room temperature; read-out: EC50.
Assay [5] concerns Tau phosphorylation at Ser396 (pSer396). The experiment in a line: Tau phosphorylation at Ser396 (pSer396) in SH-SY5Y cells, ELISA / western blot.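 Note: decrease in pSer396 Tau measured in lysates of treated cells by colorimetric ELISA or chemiluminescent western blot, same pSer396 antibody for both.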 Particulars: Homo sapiens; SH-SY5Y cells, overnight (16-18 h); read-out: pSer396 Tau EC50. Format: cell-based, human. (In general: In an ELISA, binding on a coated surface is turned into a signal by an enzyme label.)
Description: Two days before treatment, cells were seeded onto 96 well plates at 5×10^4 cells/well.
The above synthesized compounds were screened using the cell assay procedure to assess decrease Tau phosphorylation at Ser396 (pSer396) described below.
Cells were lysed with RIPA buffer complemented with phosphatase and protease inhibitors then lysates were spun down at 12,000 g for 10 min to remove any cellular debris.
In assay [6] the test system is IL-6. The assay is described as follows: IL-6 inhibition in LPS-stimulated human peripheral blood mononuclear cells (HTRF). Particulars: Homo sapiens, PBMC; for EC50: 22 h; for inhibition at 10 µM: read-out: percentage in parentheses after EC50 >10. A general note: TR-FRET usually uses a lanthanide donor and a delayed reading to cut background.
In assay [7] the test system is SW480 colon carcinoma cells. The experiment in a line: Cell viability assay (CellTiter-Glo). Particulars: Homo sapiens; for EC50: SW480, 96 h; for inhibition at 10 µM: SW480, read-out: percent inhibition at 10 μM.
In assay [8] the test system is Tau phosphorylation at Threonine 212 (pT212Tau). The assay is described as follows: Tau phosphorylation at Threonine 212 (pT212Tau) in Dyrk1a- and MAPT-overexpressing HEK293T cells, sandwich ELISA. Format: cell-based. The settings on record: Homo sapiens, HEK-293T, overnight (16-18 hours), read-out: Thr212 EC50. As to the method: HEK293T cells (transfectable human embryonic kidney cells) were cultured in DMEM medium supplemented with 10% FBS and 1% penicillin/streptomycin.
HEK293T cells were transiently transfected to overexpress Dyrk1a and microtubule-associated protein Tau (MAPT) genes. Specifically, Dyrk1a and MAPT expression vectors were obtained from OriGene (10 μg of each, catalog numbers SC314641 and RC216166, respectively). A MaxiPrep for each vector was ordered and received from GeneWiz, yielding 874.5 μg (resuspended at […]) of the Dyrk1a expression vector, and 898 μg (resuspended at […]) of MAPT.
HEK293T cells were seeded at 1.0×10^7 cells in 10 mL per T-75 flask. […] One T-75 flask was designated as a no-vector negative control for pT212Tau signal.
After 4-6 hours of incubation in transfection reagents, transiently double transfected HEK293T cells were dissociated by treatment with trypsin EDTA and seeded at 1.0×10^5 cells in 100 μL per well in 96-well plates. No-vector negative controls were seeded in separate 96-well plates to avoid the risk of the negative control cells picking up the overexpression during incubation. At the time of seeding, DMSO-resuspended Samumed compounds were dispensed to eight wells as a serial dilution from 10 μM to 4.6 nM final concentration in medium, or at 0.12 μM to 0.05 nM with particularly potent compounds. Cells were exposed to the representative compounds overnight (16-18 hours) in a 37° C. incubator.
96-Well flat-bottom plates were coated with 100 μL per well anti-HT7 capture antibody (ThermoFisher, MN1000) diluted 1:300 in 1×PBS at 4° C. overnight, with shaking at 500 rpm. After overnight capture antibody incubation, coated plates were washed four times with 200 μL per well of 1×PBS-0.05% Tween-20, and blocked for 1 hour with 200 μL per well of 1×PBS with 2% BSA. After 1 hour of blocking, plates were washed four times with 200 μL per well of 1×PBS-0.05% Tween-20, prior to sample loading.
Wells of compound-treated cells were visually checked for cell death before being washed with 200 μL per well of 1×DPBS supplemented with phosphatase inhibitor diluted to 1×. Cells were then lysed with 100 μL 1×RIPA buffer supplemented with phosphatase and protease inhibitors (each diluted to a final 1×). Cells were shaken at 500 rpm, 4° C. for 20 minutes prior to further lysis (via manual scraping) and transfer to 96-well V-bottom collection plates (Corning, 3894). V-bottom plates were centrifuged at 4000 rpm, 4° C., for 15 minutes, and 100 μL of lysate supernatant from each well was directly tested for pT212Tau signal by sandwich ELISA.
Specifically, lysates were directly transferred to the coated and blocked ELISA plates for 2 hours before plates were washed four times with 200 μL per well of 1×PBS-0.05% Tween-20 and probed with 100 μL per well of anti-pT212Tau antibody (ThermoFisher, 44-740G) diluted 1:200 in 1×PBS for 2 hours. Plates were washed four times with 200 μL per well of 1×PBS-0.05% Tween-20 and probed with 100 μL per well of anti-rabbit/HRP conjugate (Cell Signaling Technology, 7074S) diluted 1:600 in 1×PBS for 1 hour. Plates were washed four times with 200 μL per well of 1×PBS-0.05% Tween-20 before 100 μL per well of TMB substrate solution (ThermoFisher, N301) was added. When colour development was observed, 100 μL per well of stop solution (ThermoFisher, N600) was added, and colorimetric detection of pT212Tau signal was read at 450 nm with the Cytation 3 Cell Imaging Multi-Mode Reader (BioTek). The signal was used to plot, draw the curves fitting, and determine the EC50 values in GraphPad Prism for tested representative compounds.

For assay [9], the system named is secreted cytokines TNFα, IL-6 and KC-GRO. The assay is described as follows: Secreted cytokines in Lipopolysaccharide-stimulated BV-2 cells (Table 9 does not say which cytokine). Format: cell-based, mouse. The settings on record: Mus musculus, BV-2, 5 h; read-out: EC50.

Sequence of GSK3β kinase (P49841 whole entry): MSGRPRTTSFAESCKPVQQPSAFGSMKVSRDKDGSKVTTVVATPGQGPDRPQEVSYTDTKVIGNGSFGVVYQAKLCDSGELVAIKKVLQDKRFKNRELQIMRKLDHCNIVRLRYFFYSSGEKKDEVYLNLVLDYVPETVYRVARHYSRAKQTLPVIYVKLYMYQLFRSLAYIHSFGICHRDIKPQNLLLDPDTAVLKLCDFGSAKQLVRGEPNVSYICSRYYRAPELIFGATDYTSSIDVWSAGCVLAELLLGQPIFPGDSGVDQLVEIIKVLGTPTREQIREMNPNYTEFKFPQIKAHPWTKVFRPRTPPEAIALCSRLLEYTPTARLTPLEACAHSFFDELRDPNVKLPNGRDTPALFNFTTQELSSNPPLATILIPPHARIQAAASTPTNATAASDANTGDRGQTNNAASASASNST

What is called EC50 is the concentration that produces a half-maximal response. Regarding `Cn1cc(-c2cnc3cnc(NC(=O)c4ccnc(N5CCNCC5)c4)cc3c2)nn1` [Compound 3105, N-(3-(1-Methyl-1H-1,2,3-triazol-4-yl)-1,7-naphthyridin-6-yl)-2-(piperazin-1-yl)isonicotinamide], the EC50 in assay [1] was 4160 nM; in assay [2], 147 nM; in assay [3], more than 10000 nM; in [4], more than 10000 nM; in assay [5] it was more than 10000 nM; in assay [6] it was more than 10000 nM. The values for the EC50 in [7] and in assay [8] were 9750 nM and 7800 nM, respectively. The inhibition at 10 µM in [3] came out at 21.8%; in assay [6], 8%.
With `CN1CCC(Nc2cc(C(=O)Nc3ncc4ccc(-c5cnn(C)c5)cc4n3)ccn2)CC1` [Compound 4569, N-(7-(1-Methyl-1H-pyrazol-4-yl)quinazolin-2-yl)-2-((1-methylpiperidin-4-yl)amino)isonicotinamide], the half-maximal effective concentration (EC50) was 570 nM in assay [1]; 8 nM in [2]; 4090 nM in assay [3]; more than 10000 nM in [4]; more than 10000 nM in [6]; 2220 nM in assay [7]. The half-maximal effective concentration (EC50) in assay [8] was 238 nM. Also, the inhibition at 10 µM in assay [6] was found to be 42.3%.
On to `Cc1nnc(-c2ccc3cnc(NC(=O)CN4C5CCC4CC5)nc3c2)s1` [Compound 1632, 2-(7-Azabicyclo[2.2.1]heptan-7-yl)-N-(7-(5-methyl-1,3,4-thiadiazol-2-yl)quinazolin-2-yl)acetamide], for which the EC50 in assay [1] was more than 10000 nM; in assay [2], 500 nM; in [3], more than 10000 nM; in assay [4], 943 nM; in assay [6], more than 10000 nM; in [7], more than 10000 nM. The half-maximal effective concentration (EC50) in assay [8] stood at 402 nM. Also, the inhibition at 10 µM was found to be 19.2% in assay [1], 28.8% in assay [3], 4.2% in assay [6] and 21.3% in assay [7].
Regarding `CN1CCN(c2cc(C(=O)Nc3cc4cc(-c5cnn(C)c5)cnc4cn3)ccn2)CC1` [Compound 2867, N-(3-(1-methyl-1H-pyrazol-4-yl)-1,7-naphthyridin-6-yl)-2-(4-methylpiperazin-1-yl)isonicotinamide], the EC50 in assay [1] was 9160 nM; in [2], 36 nM; in [3] it was 5380 nM; in [4], more than 10000 nM; in assay [5], more than 10000 nM; in assay [6], more than 10000 nM. In addition, the figures for the concentration giving a half-maximal response (EC50) in [7] and in assay [8] were 4050 nM and 46 nM, respectively. For the same compound, the inhibition at 10 µM in assay [6] came out at 5.2%.
Take `Cn1cc(-c2ccc3nnc(NC(=O)C4CC4)cc3c2)cn1` [Compound 1815, N-(6-(1-Methyl-1H-pyrazol-4-yl)cinnolin-3-yl)cyclopropanecarboxamide]: the EC50 in assay [1], in [2], in assay [3], in assay [4], in [5] and in assay [6] was more than 10000 nM each time. The 50% effective concentration (EC50) in assay [7] and in assay [8] was more than 10000 nM in each case. Moreover, the inhibition at 10 µM in assay [1] worked out at 12.9%; in assay [3], 33.5%; in [6] it was 7%; in [7], 15.8%.
Turning to `Cn1ncc(-c2ccc3cnc(NC(=O)C4CC5(C4)CN(CCF)C5)cc3n2)c1CN1CCCCC1` [Compound 280, 2-(2-Fluoroethyl)-N-(2-(1-methyl-5-(piperidin-1-ylmethyl)-1H-pyrazol-4-yl)-1,6-naphthyridin-7-yl)-2-azaspiro[3.3]heptane-6-carboxamide], the concentration giving a half-maximal response (EC50) is more than 10000 nM in assay [1]; 150 nM in [2]; 2520 nM in [3]; 335 nM in [4]; 5710 nM in assay [6]; 2410 nM in [7]. Besides, the EC50 in assay [8] worked out at 32 nM. The inhibition at 10 µM in assay [1] is 33.7%.
As to `Cn1cncc1-c1ccc2cnc(NC(=O)c3ccc(F)cc3)nc2c1` [Compound 1354, 4-Fluoro-N-(7-(1-methyl-1H-imidazol-5-yl)quinazolin-2-yl)benzamide], the half-maximal effective concentration (EC50) in assay [1] is 2380 nM; in assay [2], 2 nM; in assay [3], 5090 nM; in [4], 1170 nM; in [6], more than 10000 nM; in assay [7], 5340 nM. In [8], the EC50 was 6 nM. For the same compound, the inhibition at 10 µM in assay [6] was 39.9%.
`CC(C)n1cc(C(=O)Nc2cc3nc(-c4cncc(NC5CCN(C)CC5)n4)ccc3cn2)cn1` [Compound 4565, 1-Isopropyl-N-(2-(6-((1-methylpiperidin-4-yl)amino)pyrazin-2-yl)-1,6-naphthyridin-7-yl)-1H-pyrazole-4-carboxamide]: the EC50 is 1000 nM in [9]; 1950 nM in [1]; 12 nM in assay [2]; more than 10000 nM in [3]; more than 10000 nM in assay [4]; more than 10000 nM in [6]. Further, the EC50 in assay [7] was determined as 1550 nM; in assay [8], 42 nM. The inhibition at 10 µM in assay [3] worked out at 31%; in assay [6], 10.2%.
Take `Cc1ncc(-c2ccc3cnc(NC(=O)N4CCC(N5CCOCC5)CC4)cc3n2)o1` [Compound 566, N-(2-(2-Methyloxazol-5-yl)-1,6-naphthyridin-7-yl)-4-morpholinopiperidine-1-carboxamide]: the 50% effective concentration (EC50) in [1] is more than 10000 nM; in assay [2] it was 77 nM; in assay [3] it was more than 10000 nM; in assay [4], 621 nM; in assay [6], more than 10000 nM; in [7] it was more than 10000 nM. For the same compound, the EC50 in assay [8] is 6600 nM. Moreover, the inhibition at 10 µM in [1] was determined as 33.2%; in assay [3], 35.2%; in [6], 3.6%; in assay [7] it was 19.7%.
In the case of `CN1CCCN(CC(=O)Nc2cc3nc(-c4cnn(C)c4)ccc3cn2)CC1` [Compound 105, 2-(4-Methyl-1,4-diazepan-1-yl)-N-(2-(1-methyl-1H-pyrazol-4-yl)-1,6-naphthyridin-7-yl)acetamide], the EC50 was 1130 nM in assay [9]; more than 10000 nM in assay [1]; 71 nM in [2]; more than 10000 nM in [3]; 541 nM in assay [4]; more than 10000 nM in assay [6]. The EC50 in [7] is more than 10000 nM; in [8] it was 263 nM. The inhibition at 10 µM came out at 45.4% in assay [1], 16.9% in assay [3], 2.6% in assay [6] and 38.9% in [7].

Values taken from patent US10703748B2, “Diazanaphthalen-3-yl carboxamides and preparation and use thereof” (Samumed, LLC, priority 2017, dated 2020).
